This passage reports IC50 results from patent publication US12415803B2, “Fused imidazopyridines as reversible inhibitors of Brutons Tyrosine Kinase (BTK)” (Merck Patent GmbH, priority 2018, dated 2025).

One test deals with full-length human BTK (Homo sapiens (Human), UniProt Q06187). The test is described as follows: BTK IC50 Enzyme Assay (microfluidic off-chip mobility shift kinase assay).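 Note: Read-out separates phosphorylated peptide product from substrate by their charge-to-mass difference, with IC50 fitted from log inhibitor concentration against percent enzyme activity.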 In kind it is biochemical. The following applies: Btk Enzymatic IC50 Assay, 90 min at 27 C.
A further test addresses Btk (Homo sapiens (Human), UniProt Q06187). The experiment in a line: Btk PBMC IC50 Cell Assay (anti-IgM-induced CD69 expression on B cells).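 Note: freshly isolated human PBMCs, IC50 from concentration-response of the share of CD19+ cells expressing CD69 after anti-IgM BCR stimulation.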 In kind it is cell-based. The following applies: anti-IgM-induced CD69 expression on CD19 positive cells in human PBMCs.

Chain of full-length human BTK (Q06187 whole entry): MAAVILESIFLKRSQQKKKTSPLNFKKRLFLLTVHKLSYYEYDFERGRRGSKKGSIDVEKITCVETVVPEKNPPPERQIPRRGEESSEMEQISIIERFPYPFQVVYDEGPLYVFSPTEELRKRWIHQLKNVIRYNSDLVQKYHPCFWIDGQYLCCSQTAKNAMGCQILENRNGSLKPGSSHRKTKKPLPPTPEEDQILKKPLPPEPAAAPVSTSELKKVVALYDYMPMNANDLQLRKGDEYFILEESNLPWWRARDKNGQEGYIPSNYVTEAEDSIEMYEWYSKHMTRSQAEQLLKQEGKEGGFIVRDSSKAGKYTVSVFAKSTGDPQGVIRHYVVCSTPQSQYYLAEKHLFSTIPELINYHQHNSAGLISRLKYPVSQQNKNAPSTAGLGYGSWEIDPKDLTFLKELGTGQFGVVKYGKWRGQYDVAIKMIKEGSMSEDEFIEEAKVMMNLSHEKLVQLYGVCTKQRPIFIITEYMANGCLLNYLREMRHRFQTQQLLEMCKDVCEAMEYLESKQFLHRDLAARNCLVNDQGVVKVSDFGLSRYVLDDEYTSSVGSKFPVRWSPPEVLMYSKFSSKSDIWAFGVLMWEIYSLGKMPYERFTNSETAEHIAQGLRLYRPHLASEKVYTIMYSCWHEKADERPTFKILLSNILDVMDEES
Chain of Btk (Q06187 whole entry): as above

Turning to `Cc1nn(C(C)C)cc1-c1nc2c(-c3ccc4c(c3)CCCCC4NC(=O)c3noc(C(C)(C)C)n3)ccnc2[nH]1` (centres unmarked) [Compound 58, 5-tert-Butyl-[1,2,4]oxadiazole-3-carboxylic acid {2-[2-(1-isopropyl-3-methyl-1H-pyrazol-4-yl)-3H-imidazo[4,5-b]pyridin-7-yl]-6,7,8,9-tetrahydro-5H-benzocyclohepten-5-yl}-amide], the results for the concentration for half-maximal inhibition (IC50) at full-length human BTK and on Btk were below 1 nM and 1 to 10 nM, respectively.
Turning to `Cc1nn(C(C)C)cc1-c1nc2c(-c3ccc4c(c3)CCCC[C@H]4NC(=O)c3nc(C4(C)CC4)no3)ccnc2[nH]1` [Compound 59, 3-(1-Methyl-cyclopropyl)-[1,2,4]oxadiazole-5-carboxylic acid {(R)-2-[2-(1-isopropyl-3-methyl-1H-pyrazol-4-yl)-3H-imidazo[4,5-b]pyridin-7-yl]-6,7,8,9-tetrahydro-5H-benzocyclohepten-5-yl}-amide], the IC50 – broadly, the concentration that gives 50% inhibition – was below 1 nM at full-length human BTK and 1 to 10 nM against Btk.
Take `Cc1nn(C(C)C)cc1-c1nc2c(-c3ccc4c(c3)CCCC[C@@H]4NC(=O)c3nc(C4(C)CC4)no3)ccnc2[nH]1` [Compound 60, 3-(1-Methyl-cyclopropyl)-[1,2,4]oxadiazole-5-carboxylic acid {(S)-2-[2-(1-isopropyl-3-methyl-1H-pyrazol-4-yl)-3H-imidazo[4,5-b]pyridin-7-yl]-6,7,8,9-tetrahydro-5H-benzocyclohepten-5-yl}-amide]: the half-inhibitory concentration (IC50) lay within 1 to 10 nM at full-length human BTK and 10 to 100 nM against Btk.
Turning to `Cc1nn(C(C)C)cc1-c1nc2c(-c3ccc4c(c3)CCCC[C@H]4NC(=O)c3noc(C(C)(C)C)n3)ccnc2[nH]1` [Compound 61, 5-tert-Butyl-[1,2,4]oxadiazole-3-carboxylic acid {(R)-2-[2-(1-isopropyl-3-methyl-1H-pyrazol-4-yl)-3H-imidazo[4,5-b]pyridin-7-yl]-6,7,8,9-tetrahydro-5H-benzocyclohepten-5-yl}-amide], the values for the IC50 on full-length human BTK and at Btk were below 1 nM and 1 to 10 nM, respectively.
On to `Cc1nn(C(C)C)cc1-c1nc2c(-c3ccc4c(c3)CCCC[C@@H]4NC(=O)c3noc(C(C)(C)C)n3)ccnc2[nH]1` [Compound 62, 5-tert-Butyl-[1,2,4]oxadiazole-3-carboxylic acid {(S)-2-[2-(1-isopropyl-3-methyl-1H-pyrazol-4-yl)-3H-imidazo[4,5-b]pyridin-7-yl]-6,7,8,9-tetrahydro-5H-benzocyclohepten-5-yl}-amide], for which the IC50 at full-length human BTK is 1 to 10 nM; against Btk, 10 to 100 nM.
With `Cc1nn(C(C)C)cc1-c1nc2c(-c3ccc4c(c3)CCCC[C@H]4NC(=O)c3nc(C(C)(C)C)no3)ccnc2[nH]1` [Compound 63, 3-tert-Butyl-[1,2,4]oxadiazole-5-carboxylic acid {(R)-2-[2-(1-isopropyl-3-methyl-1H-pyrazol-4-yl)-3H-imidazo[4,5-b]pyridin-7-yl]-6,7,8,9-tetrahydro-5H-benzocyclohepten-5-yl}-amide], the results for the IC50 at full-length human BTK and against Btk were below 1 nM and 1 to 10 nM, respectively.
For `Cc1nn(C)cc1-c1nc2c(-c3ccc4c(c3)CCCC4NC(=O)c3nc(C(C)(C)C)no3)ccnc2[nH]1` (centres unmarked) [Compound 67, 3-tert-Butyl-[1,2,4]oxadiazole-5-carboxylic acid {6-[2-(1,3-dimethyl-1H-pyrazol-4-yl)-3H-imidazo[4,5-b]pyridin-7-yl]-1,2,3,4-tetrahydro-naphthalen-1-yl}-amide], the IC50 was below 1 nM at full-length human BTK and 10 to 100 nM at Btk.
Take `Cc1nn(C)c(C)c1-c1nc2c(-c3ccc4c(c3)CCCC4NC(=O)c3nc(C(C)(C)C)no3)ccnc2[nH]1` (centres unmarked) [Compound 68, 3-tert-Butyl-[1,2,4]oxadiazole-5-carboxylic acid {6-[2-(1,3,5-trimethyl-1H-pyrazol-4-yl)-3H-imidazo[4,5-b]pyridin-7-yl]-1,2,3,4-tetrahydro-naphthalen-1-yl}-amide]: the figures for the IC50 on full-length human BTK and on Btk were 1 to 10 nM and 10 to 100 nM, respectively.
For the compound `Cc1nn(C)c(C)c1-c1nc2nccc(-c3ccc4c(c3)CCCC[C@@H]4NC(=O)c3cc(C(C)(C)C)on3)c2[nH]1` [Compound 71, 5-tert-butyl-N-[(5S)-2-[2-(1,3,5-trimethyl-1H-pyrazol-4-yl)-1H-imidazo[4,5-b]pyridin-7-yl]-6,7,8,9-tetrahydro-5H-benzo[7]annulen-5-yl]-1,2-oxazole-3-carboxamide], the IC50 on full-length human BTK was 1 to 10 nM; against Btk it was 10 to 100 nM.
With `Cc1nn(C)c(C)c1-c1nc2c(-c3ccc4c(c3)CCC[C@@H]4NC(=O)c3nc(C(C)(C)C)no3)ccnc2[nH]1` [Compound 73, 3-tert-butyl-N-[(1S)-6-[2-(1,3,5-trimethyl-1H-pyrazol-4-yl)-3H-imidazo[4,5-b]pyridin-7-yl]-1,2,3,4-tetrahydronaphthalen-1-yl]-1,2,4-oxadiazole-5-carboxamide], the IC50 at full-length human BTK and against Btk was 1 to 10 nM throughout.
As for `CC(C)(C)c1noc(C(=O)N[C@@H]2CCCc3cc(-c4ccnc5[nH]c(-c6cnn(C7CC7)c6)nc45)ccc32)n1` [Compound 75, 3-tert-butyl-N-[(1R)-6-[2-(1-cyclopropyl-1H-pyrazol-4-yl)-3H-imidazo[4,5-b]pyridin-7-yl]-1,2,3,4-tetrahydronaphthalen-1-yl]-1,2,4-oxadiazole-5-carboxamide], the half-inhibitory concentration (IC50) at full-length human BTK was below 1 nM; at Btk, 1 to 10 nM.
In the case of `Cc1nn(C(C)C)cc1-c1nc2nccc(-c3ccc4c(c3)CCCC[C@@H]4NC(=O)c3nnc(C(C)(C)C)o3)c2[nH]1` [Compound 77, 5-tert-butyl-N-[(5S)-2-{2-[3-methyl-1-(propan-2-yl)-1H-pyrazol-4-yl]-1H-imidazo[4,5-b]pyridin-7-yl}-6,7,8,9-tetrahydro-5H-benzo[7]annulen-5-yl]-1,3,4-oxadiazole-2-carboxamide], the half-maximal inhibitory concentration (IC50) at full-length human BTK fell in the range of 1 to 10 nM; against Btk it was 10 to 100 nM.
The corresponding values for `Cc1c(-c2nc3nccc(-c4ccc5c(c4)CCCC[C@@H]5NC(=O)c4nnc(C(C)(C)C)o4)c3[nH]2)cnn1C1CCOCC1` [Compound 80, 5-tert-butyl-N-[(5S)-2-{2-[5-methyl-1-(oxan-4-yl)-1H-pyrazol-4-yl]-1H-imidazo[4,5-b]pyridin-7-yl}-6,7,8,9-tetrahydro-5H-benzo[7]annulen-5-yl]-1,3,4-oxadiazole-2-carboxamide] are 1 to 10 nM and above 100 nM.
Taken in the same sequence, the figures for `CC(C)n1cc(-c2nc3nccc(-c4ccc5c(c4)CCCC[C@H]5NC(=O)c4nc(C(C)(C)C)no4)c3[nH]2)cn1` [Compound 82] were below 1 nM and below 1 nM.
Turning to `Cc1c(-c2nc3c(-c4ccc5c(c4)CCCCC5NC(=O)c4nnc(C(C)(C)C)o4)ccnc3[nH]2)cnn1C(C)C` (centres unmarked) [Compound 84, 5-tert-butyl-N-(2-{2-[5-methyl-1-(propan-2-yl)-1H-pyrazol-4-yl]-3H-imidazo[4,5-b]pyridin-7-yl}-6,7,8,9-tetrahydro-5H-benzo[7]annulen-5-yl)-1,3,4-oxadiazole-2-carboxamide], the IC50 on full-length human BTK is below 1 nM; against Btk it was 1 to 10 nM.
In the case of `CCn1ncc(-c2nc3c(-c4ccc5c(c4)CCCCC5NC(=O)c4nc(C(C)(C)C)no4)ccnc3[nH]2)c1C` (centres unmarked) [Compound 85, 3-tert-butyl-N-{2-[2-(1-ethyl-5-methyl-1H-pyrazol-4-yl)-3H-imidazo[4,5-b]pyridin-7-yl]-6,7,8,9-tetrahydro-5H-benzo[7]annulen-5-yl}-1,2,4-oxadiazole-5-carboxamide], the IC50 is below 1 nM on full-length human BTK and 1 to 10 nM at Btk.
Taken in the same sequence, the figures for `Cc1nn(C(C)C)c(C)c1-c1nc2c(-c3ccc4c(c3)CCCC[C@H]4NC(=O)c3nnc(C(C)(C)C)o3)ccnc2[nH]1` [Compound 87, 5-tert-butyl-N-[(5R)-2-{2-[3,5-dimethyl-1-(propan-2-yl)-1H-pyrazol-4-yl]-3H-imidazo[4,5-b]pyridin-7-yl}-6,7,8,9-tetrahydro-5H-benzo[7]annulen-5-yl]-1,3,4-oxadiazole-2-carboxamide] were below 1 nM and 1 to 10 nM.
The corresponding values for `Cc1nn(C(C)C)c(C)c1-c1nc2c(-c3ccc4c(c3)CCCC[C@@H]4NC(=O)c3nnc(C(C)(C)C)o3)ccnc2[nH]1` [Compound 88, 5-tert-butyl-N-[(5S)-2-{2-[3,5-dimethyl-1-(propan-2-yl)-1H-pyrazol-4-yl]-3H-imidazo[4,5-b]pyridin-7-yl}-6,7,8,9-tetrahydro-5H-benzo[7]annulen-5-yl]-1,3,4-oxadiazole-2-carboxamide] are 1 to 10 nM and above 100 nM.
Taken in the same sequence, the figures for `CCc1cc(-c2nc3nccc(-c4ccc5c(c4)CCCC[C@H]5NC(=O)c4nnc(C(C)(C)C)o4)c3[nH]2)nn1C` [Compound 90, 5-tert-butyl-N-[(5R)-2-[2-(5-ethyl-1-methyl-1H-pyrazol-3-yl)-1H-imidazo[4,5-b]pyridin-7-yl]-6,7,8,9-tetrahydro-5H-benzo[7]annulen-5-yl]-1,3,4-oxadiazole-2-carboxamide] were 1 to 10 nM and 10 to 100 nM.
In the case of `Cn1cc(-c2nc3c(-c4ccc5c(c4)CCCC5NC(=O)c4nnc(C(C)(C)C)o4)ccnc3[nH]2)cn1` (centres unmarked) [Compound 104, 5-tert-Butyl-[1,3,4]oxadiazole-2-carboxylic acid {6-[2-(1-methyl-1H-pyrazol-4-yl)-3H-imidazo[4,5-b]pyridin-7-yl]-1,2,3,4-tetrahydro-naphthalen-1-yl}-amide], the results for the IC50 on full-length human BTK and against Btk were 1 to 10 nM and 10 to 100 nM, respectively.
The corresponding values for `CC(C)n1cc(-c2nc3c(-c4ccc5c(c4)CCCCC5NC(=O)c4nc(C(C)(C)C)no4)ccnc3[nH]2)cn1` (centres unmarked) [Compound 106, 3-tert-Butyl-[1,2,4]oxadiazole-5-carboxylic acid {2-[2-(1-isopropyl-1H-pyrazol-4-yl)-3H-imidazo[4,5-b]pyridin-7-yl]-6,7,8,9-tetrahydro-5H-benzocyclohepten-5-yl}-amide] are below 1 nM and 1 to 10 nM.
As for `Cn1ccc(-c2nc3c(-c4ccc5c(c4)CCCCC5NC(=O)c4nc(C(C)(C)C)no4)ccnc3[nH]2)n1` (centres unmarked) [Compound 109, 3-tert-Butyl-[1,2,4]oxadiazole-5-carboxylic acid {2-[2-(1-methyl-1H-pyrazol-3-yl)-3H-imidazo[4,5-b]pyridin-7-yl]-6,7,8,9-tetrahydro-5H-benzocyclohepten-5-yl}-amide], the IC50 at full-length human BTK and at Btk was below 1 nM throughout.
